Results as given in patent publication US7772228B2, “Method for treatment of bacterial infections with once or twice-weekly administered rifalazil” (priority 1998, dated 2010).
Values after ≈ are worked out from the molar mass of the structure shown. Read-outs that look alike come from different tables or passages of the source.

How the values were obtained:
[1] = test system: M. tuberculosis; conditions: cited from earlier work
[2] = test system: extracellular M. tuberculosis; assay: MIC and MBC against extracellular bacteria; type: cell-based, Mycobacterium tuberculosis
[3] = test system: M. tuberculosis; conditions: eight weeks treatment; cited from earlier work
[4] = test system: M. avium; conditions: 18 strains, agar dilution; cited from earlier work
[5] = Clinical trial 005, rifalazil concentration in plasma of tuberculosis patients; type: in vivo, human; conditions: for maximum concentration of the drug in plasma: six hours; for concentration at 3 h / concentration at 11 day / concentration at 15 day / concentration at 0 h / concentration at 2 h / concentration at 5 h: human, plasma; for concentration at 3 h: three hours; for concentration at 11 day: Day 11; for concentration at 15 day: Day 15; for concentration at 0 h: Hour 0; for concentration at 2 h: Hour 2; for concentration at 5 h: Hour 5
Description: Definite diagnosis and evaluation of treatment efficacy requires direct examination of sputum for the presence of M. tuberculosis. The extent of M. tuberculosis infection is determined by number of bacteria able to form colonies and is expressed as colony forming units. When the number of colony forming units (CFU) is high, the infection is unhindered. When the CFU decreases, the number of active M. tuberculosis bacteria decreases. The CFU, typically expressed as Log10, have therefore important diagnostic and treatment evaluative value.
Table 21 summarizes the plasma concentrations data of rifalazil measured in patients that received rifalazil at zero hour. The data are separated into 2 groups and are identified as INH+10 mg rifalazil (Group 3) and INH+25 mg rifalazil (Group 4). The concentration of rifalazil in plasma is presented in ng/mL and are shown as a timecourse (hours and days) wherein values were determined at several times over the two weeks of the study.

[6] = Ref. 1, BACTEC, 30 strains (rif^r and rif^s)
[7] = Ref. 2, BACTEC, 24 strains (rif^r and rif^s)
[8] = Ref. 3, BACTEC, 13 strains (rif^s)
[9] = Ref. 4, BACTEC, 11 strains (rif^r)
[10] = Ref. 5, BACTEC, 20 strains (rif^s)
[11] = thirty clinical isolates, BACTEC
[12] = 10 mg, INH + 10 mg KRM, read-out: Rifalazil Concentration in Plasma, Max
[13] = 10 mg, INH + 10 mg KRM, read-out: Rifalazil Concentration in Plasma, Med
[14] = 10 mg, INH + 10 mg KRM, read-out: Rifalazil Concentration in Plasma, Min
[15] = 25 mg, INH + 25 mg KRM, read-out: Rifalazil Concentration in Plasma, Max
[16] = 25 mg, INH + 25 mg KRM, read-out: Rifalazil Concentration in Plasma, Mean
[17] = 25 mg, INH + 25 mg KRM, read-out: Rifalazil Concentration in Plasma, Med
[18] = 25 mg, INH + 25 mg KRM, read-out: Rifalazil Concentration in Plasma, Min
[19] = INH + 10 mg KRM, read-out: Rifalazil Concentration in Plasma, Mean
[20] = INH + 10 mg KRM, read-out: Rifalazil Concentration in Plasma, Max
[21] = INH + 10 mg KRM, read-out: Rifalazil Concentration in Plasma, Med
[22] = INH + 10 mg KRM, read-out: Rifalazil Concentration in Plasma, Min

CO[C@H]1/C=C/O[C@@]2(C)Oc3c(C)c(O)c4c(=O)c(c5oc6cc(N7CCN(CC(C)C)CC7)cc(O)c6nc-5c4c3C2=O)NC(=O)/C(C)=C\C=C\[C@H](C)[C@H](O)[C@@H](C)[C@@H](O)[C@@H](C)[C@H](OC(C)=O)[C@@H]1C [Rifalazil, 3′-hydroxy-5′-(4-isobutyl-1-piperazinyl)benzoxasinorifamycin]
MIC90 [1, 6]: 2.0 µg/mL (≈ 2.13 µM)
MIC Range [1, 6]: ≦0.002 to 4.0^ μg/mL
MIC90 [1, 7]: 4.0 µg/mL (≈ 4.25 µM)
MIC Range [1, 7]: 0.0009 to 4.0 µg/mL
MIC90 [1, 8]: 0.0156 µg/mL (≈ 0.0166 µM)
MIC Range [1, 8]: 0.0009 to 0.125 µg/mL
MIC90 [1, 9]: 4.0 µg/mL (≈ 4.25 µM)
MIC Range [1, 9]: 0.062 to 4.0 µg/mL
MIC90 [1, 10]: <0.125 µg/mL
MIC Range [1, 10]: <0.125 µg/mL
MIC90 ([1]; Ref. 6, BACTEC, 20 strains (rif^r)): >2.0 µg/mL
MIC ([1]; reference strain H37Rv, BACTEC): 0.004 µg/mL (≈ 0.00425 µM)
MIC ([1]; reference strain Kurono, BACTEC): 0.002 µg/mL (≈ 0.00213 µM)
MIC90 ([1]; rifampin-sensitive Mycobacterium tuberculosis): 0.0156 µg/mL (≈ 0.0166 µM)
MIC50 50% inhibition [1, 11]: 0.016 µg/mL (≈ 0.017 µM)
MIC90 90% inhibition [1, 11]: 2.0 µg/mL (≈ 2.13 µM)
MIC and MBC fold lower than rifampin ([2]; extracellular bacteria): at least 10 fold
MBCs relative to the MICs ([2]; typical): 2-4 fold
gross lung lesions, bacterial loads, survival time versus rifampin [3]: outperformed rifampin in treating the disease
MIC90 [4]: 1.56 µg/mL (≈ 1.66 µM)
maximum concentration of the drug in plasma ([5]; 10 mg rifalazil): 12.68 ng/mL
maximum concentration of the drug in plasma ([5]; 25 mg rifalazil): 28.47 ng/mL
drug in plasma ([5]; 72 hours (3 days)): still measurable amount of drug in plasma
Rifalazil Concentration in Plasma, Max ([5]; INH + 10 mg KRM, Day 4 M-0): 0 ng/mL
Rifalazil Concentration in Plasma, Mean ([5]; INH + 10 mg KRM, Day 4 M-0): 0 ng/mL
Rifalazil Concentration in Plasma, Med ([5]; INH + 10 mg KRM, Day 4 M-0): 0 ng/mL
Rifalazil Concentration in Plasma, Min ([5]; INH + 10 mg KRM, Day 4 M-0): 0 ng/mL
Rifalazil Concentration in Plasma, Max ([5]; INH + 10 mg KRM, Day 8 M-4): 21.9 ng/mL
Rifalazil Concentration in Plasma, Mean ([5]; INH + 10 mg KRM, Day 8 M-4): 18.31 ng/mL
Rifalazil Concentration in Plasma, Min ([5]; INH + 10 mg KRM, Day 8 M-4): 9.7 ng/mL
Rifalazil Concentration in Plasma, Max ([5]; INH + 25 mg KRM, Day 4 M-0): 0 ng/mL
Rifalazil Concentration in Plasma, Mean ([5]; INH + 25 mg KRM, Day 4 M-0): 0 ng/mL
Rifalazil Concentration in Plasma, Med ([5]; INH + 25 mg KRM, Day 4 M-0): 0 ng/mL
Rifalazil Concentration in Plasma, Min ([5]; INH + 25 mg KRM, Day 4 M-0): 0 ng/mL
Rifalazil Concentration in Plasma, Max ([5]; INH + 25 mg KRM, Day 8 M-4): 41.0 ng/mL
Rifalazil Concentration in Plasma, Mean ([5]; INH + 25 mg KRM, Day 8 M-4): 29.02 ng/mL
Rifalazil Concentration in Plasma, Med ([5]; INH + 25 mg KRM, Day 8 M-4): 28.5 ng/mL
Rifalazil Concentration in Plasma, Min ([5]; INH + 25 mg KRM, Day 8 M-4): 11.7 ng/mL
concentration at 3 h ([5]; 10 mg, 10 mg of rifalazil): 9.7 ng/mL
concentration at 11 day [5, 12]: 2.5 ng/mL
concentration at 11 day [5, 13]: 1.4 ng/mL
concentration at 11 day [5, 14]: 2 ng/mL
concentration at 15 day [5, 12]: 0 ng/mL
concentration at 15 day [5, 13]: 3 ng/mL
concentration at 15 day [5, 14]: 0 ng/mL
concentration at 3 h ([5]; 25 mg, 25 mg rifalazil): 15.9 ng/mL
concentration at 11 day [5, 15]: 9.1 ng/mL
concentration at 11 day [5, 16]: 4.12 ng/mL
concentration at 11 day [5, 17]: 3.3 ng/mL
concentration at 11 day [5, 18]: 2.2 ng/mL
concentration at 15 day [5, 15]: 3.4 ng/mL
concentration at 15 day [5, 16]: 0.95 ng/mL
concentration at 15 day [5, 17]: 0 ng/mL
concentration at 15 day [5, 18]: 0 ng/mL
concentration at 11 day [5, 19]: 2.4 ng/mL
concentration at 15 day [5, 19]: 3 ng/mL
concentration at 0 h [5, 20]: 0 ng/mL
concentration at 0 h [5, 19]: 0 ng/mL
concentration at 0 h [5, 21]: 3 ng/mL
concentration at 0 h [5, 22]: 0 ng/mL
concentration at 2 h [5, 20]: 20.3 ng/mL
concentration at 2 h [5, 19]: 9.7 ng/mL
concentration at 2 h [5, 21]: 9 ng/mL
concentration at 2 h [5, 22]: 0 ng/mL
concentration at 5 h [5, 20]: 22.7 ng/mL
concentration at 5 h [5, 19]: 12.5 ng/mL
